Data: patent US6589953B2, “Indole derivatives as 5-HT1B and 5-HT1D agonists” (Pierre Fabre Medicament, priority 1997, dated 2003)

| melting point | Compound |
| --- | --- |
| 123 °C | Cc1ccccc1-c1nnc(-c2ccc(N3CCN(C(=O)COc4ccc5[nH]cc(CCN)c5c4)CC3)cc2)o1.O=C(O)/C=C/C(=O)O |
| 170 °C | NCCc1c[nH]c2ccc(OCC(=O)N3CCN(c4ccc(-c5nnc(-c6ccccc6)o5)cc4)CC3)cc12.O=C(O)/C=C/C(=O)O |
| 135 °C | Cc1ccc(-c2nnc(-c3ccc(N4CCN(C(=O)COc5ccc6[nH]cc(CCN)c6c5)CC4)cc3)o2)cc1.O=C(O)/C=C/C(=O)O |

The next lines start with the compound.

| Compound | melting point |
| --- | --- |
| NCCc1c[nH]c2ccc(OCC(=O)N3CCN(c4ccc(-c5nc6ccccc6s5)cc4)CC3)cc12.O=C(O)/C=C/C(=O)O | 156 to 160 °C |
| Cl.NCCc1c[nH]c2ccc(OCC(=O)N3CCN(c4ccc(-c5nn[nH]n5)cc4)CC3)cc12 | 225 to 227 °C |
| NCCc1c[nH]c2ccc(OCC(=O)N3CCN(c4ccc(C5=NCCO5)cc4)CC3)cc12.O=C(O)/C=C/C(=O)O | 170 °C |
| NCCc1c[nH]c2ccc(OCC(=O)N3CCN(c4ccc(-c5cccs5)cc4)CC3)cc12.O=C(O)/C=C/C(=O)O | 154 to 156 °C |
| NCCc1c[nH]c2ccc(OCC(=O)N3CCN(c4ccc(-c5ccncc5)cc4)CC3)cc12.O=C(O)/C=C/C(=O)O | 176 °C |
| Cl.Cl.NCCc1c[nH]c2ccc(OCC(=O)N3CCN(c4ccc(-c5ncco5)cc4)CC3)cc12 | 64 to 66 °C (dec.) |
